Structures are written as SMILES. In brackets after ≈: the same amount, converted by molar mass.

The subject of the first assay is HeLaS3 cells. Kind of assay: HeLaS3 cell growth inhibition test. The assay is classed as cell-based. As to conditions: Homo sapiens, HeLa S3; HeLaS3 cells, contact for 72 hours; read-out: cell growth inhibitory activity IC50, HeLaS3. The method, then:
(§1) Compound (I) was examined for C-kinase inhibitory activity and cell growth inhibitory activity by the following method.
(§2) MCF 7 cells (4.5×10^4 cells/ml) prepared in RPMI 1640 medium containing 10% fetal calf serum, 10 μg/ml insulin and 10^-8 M estradiol are put into wells of a 96-well microtiter plate in the amount of 0.1 ml per each well. After incubation at 37° C. overnight in CO2 -incubator, 0.05 ml each of a test sample appropriately diluted with the culture medium is added to each well. In the case of contact for 72 hours, the cells are further cultured in CO2 -incubator, and then the culture supernatant is removed and the wells are washed once with PBS(-). Thereafter, 0.1 ml of fresh medium is added to each well, followed by culturing at 37° C. for 72 hours in CO2 -incubator. After the culture supernatant is removed, 0.1 ml of the culture medium containing 0.02% Neutral Red is added to each well, followed by culturing at 37° C. for one hour in CO2 -incubator, whereby the cells are stained. Then, the culture supernatant is removed and the cells are washed once with physiological saline. The pigment is extracted with 0.001N HCl/30% ethanol and absorption is measured at 550 nm with a microplate reader. By comparing the absorption of intact cells with those of the cells treated with a test compound in known concentrations, the concentration of the test compound at which growth of the cells is inhibited 50% is calculated as IC50.
(3) HeLaS3 cell growth inhibition test:
HeLaS3 cells (3×10^4 cells/ml) prepared in MEM medium containing 10% fetal calf serum and 2 mM glutamine are put into wells of a 96-well microtiter plate in the amount of 0.1 ml per each well.
Thereafter, the test is carried out in the same manner as in (1).
Regarding `Cc1ccc2c(c1)c1c3c(c4c5ccccc5n5c4c1n2[C@H]1C[C@](O)(CO)[C@]5(C)O1)CNC3=O` (relative stereo) [Compound 26], the IC50 turned out to be 0.03 µg/mL (≈ 0.0662 µM).

In the case of `COC(=O)CNC[C@@]1(O)C[C@H]2O[C@]1(C)n1c3ccccc3c3c4c(c5c6ccccc6n2c5c31)C(=O)NC4` (relative stereo) [Compound 31], the IC50 was determined as 0.08 µg/mL (≈ 0.157 µM).

Regarding `CN(C)C=NC[C@@]1(O)C[C@H]2O[C@]1(C)n1c3ccccc3c3c4c(c5c6ccccc6n2c5c31)C(=O)NC4` (relative stereo) [Compound 33], the IC50 is 0.08 µg/mL (≈ 0.162 µM).

`C[C@]12O[C@H](C[C@]1(O)COC1CCCCO1)n1c3ccccc3c3c4c(c5c6ccccc6n2c5c31)CNC4=O` (some centres unmarked) [Compound 28]: the IC50 came out at 0.2 µg/mL (≈ 0.382 µM).

`CC12OC(CC1(O)CNC(=O)CN)n1c3ccccc3c3c4c(c5c6ccccc6n2c5c31)CNC4=O` (centres unmarked) [Compound 34]: the IC50 turned out to be 0.03 µg/mL (≈ 0.0605 µM).

Turning to `CC12OC(CC1(O)CNC(=O)C1CCCN1)n1c3ccccc3c3c4c(c5c6ccccc6n2c5c31)CNC4=O` (centres unmarked) [Compound 35], the IC50 came out at 0.05 µg/mL (≈ 0.0934 µM).

With `CC12OC(CC1(O)CN1CCSCC1)n1c3ccccc3c3c4c(c5c6ccccc6n2c5c31)CNC4=O` (centres unmarked) [Compound 39], the IC50 turned out to be 0.14 µg/mL (≈ 0.267 µM).

In the case of `CC12OC(CC1(O)CN1CCNCC1)n1c3ccccc3c3c4c(c5c6ccccc6n2c5c31)CNC4=O` (centres unmarked) [Compound 40], the IC50 was found to be 0.38 µg/mL (≈ 0.749 µM).

Consider `CC12OC(CC1(O)CN1CCCCC1)n1c3ccccc3c3c4c(c5c6ccccc6n2c5c31)CNC4=O` (centres unmarked) [Compound 41], for which the IC50 turned out to be 0.06 µg/mL (≈ 0.118 µM).

Turning to `COC(=O)C1(O)CC2OC1(C)n1c3ccccc3c3c4c(c5c6ccccc6n2c5c31)C(=O)N(CCN(C)C)C4=O` (centres unmarked) [Compound 69], the IC50 stood at 0.88 µg/mL (≈ 1.59 µM).

Regarding `CN(C)CCN1C(=O)c2c(c3c4ccccc4n4c3c3c2c2ccccc2n3C2CC(O)(CO)C4(C)O2)C1=O` (centres unmarked) [Compound 70], the IC50 came to 0.5 µg/mL (≈ 0.953 µM).

Regarding `CC12OC(CC1(O)CN)n1c3ccccc3c3c4c(c5c6ccccc6n2c5c31)C(=O)N(N)C4=O` (centres unmarked) [Compound 71], the IC50 was greater than 1 µg/mL.

In the case of `CN1CC2(CC3OC2(C)n2c4ccccc4c4c5c(c6c7ccccc7n3c6c42)C(=O)NC5=O)OC1=O` (centres unmarked) [Compound 75], the IC50 was found to be 0.27 µg/mL (≈ 0.548 µM).

As for `CC12OC(CC1(O)C(=O)NO)n1c3ccccc3c3c4c(c5c6ccccc6n2c5c31)C(=O)NC4=O` (centres unmarked) [Compound 76], the IC50 worked out at 0.4 µg/mL (≈ 0.829 µM).

For another assay, the system named is MCF 7 cells. Nature of the assay: MCF 7 cell growth inhibition test. The assay is classed as cell-based. As to conditions: Homo sapiens, MCF7; MCF-7 cells, contact for 72 hours; read-out: cell growth inhibitory activity IC50, MCF-7. As for the experimental part: as §1
(1) MCF 7 cell growth inhibition test:
as §2
In the case of `Cc1ccc2c(c1)c1c3c(c4c5ccccc5n5c4c1n2[C@H]1C[C@](O)(CO)[C@]5(C)O1)CNC3=O` (relative stereo) [Compound 26], the IC50 was determined as 0.26 µg/mL (≈ 0.573 µM).

On to `COC(=O)CNC[C@@]1(O)C[C@H]2O[C@]1(C)n1c3ccccc3c3c4c(c5c6ccccc6n2c5c31)C(=O)NC4` (relative stereo) [Compound 31], for which the half-maximal inhibitory concentration (IC50) turned out to be 0.8 µg/mL (≈ 1.57 µM).

In the case of `CN(C)C=NC[C@@]1(O)C[C@H]2O[C@]1(C)n1c3ccccc3c3c4c(c5c6ccccc6n2c5c31)C(=O)NC4` (relative stereo) [Compound 33], the IC50 was 0.26 µg/mL (≈ 0.527 µM).

As to `C[C@]12O[C@H](C[C@]1(O)COC1CCCCO1)n1c3ccccc3c3c4c(c5c6ccccc6n2c5c31)CNC4=O` (some centres unmarked) [Compound 28], the half-maximal inhibitory concentration (IC50) turned out to be 1 µg/mL (≈ 1.91 µM).

For `CC12OC(CC1(O)CNC(=O)CN)n1c3ccccc3c3c4c(c5c6ccccc6n2c5c31)CNC4=O` (centres unmarked) [Compound 34], the IC50 turned out to be 0.24 µg/mL (≈ 0.484 µM).

For `CC12OC(CC1(O)CNC(=O)C1CCCN1)n1c3ccccc3c3c4c(c5c6ccccc6n2c5c31)CNC4=O` (centres unmarked) [Compound 35], the IC50 turned out to be 0.27 µg/mL (≈ 0.504 µM).

Take `CC12OC(CC1(O)CN1CCSCC1)n1c3ccccc3c3c4c(c5c6ccccc6n2c5c31)CNC4=O` (centres unmarked) [Compound 39]: the IC50 is greater than 1 µg/mL.

`CC12OC(CC1(O)CN1CCNCC1)n1c3ccccc3c3c4c(c5c6ccccc6n2c5c31)CNC4=O` (centres unmarked) [Compound 40]: the IC50 is greater than 1 µg/mL.

For `CC12OC(CC1(O)CN1CCCCC1)n1c3ccccc3c3c4c(c5c6ccccc6n2c5c31)CNC4=O` (centres unmarked) [Compound 41], the IC50 is greater than 1 µg/mL.

`COC(=O)C1(O)CC2OC1(C)n1c3ccccc3c3c4c(c5c6ccccc6n2c5c31)C(=O)N(CCN(C)C)C4=O` (centres unmarked) [Compound 69]: the IC50 was greater than 1 µg/mL.

On to `CN(C)CCN1C(=O)c2c(c3c4ccccc4n4c3c3c2c2ccccc2n3C2CC(O)(CO)C4(C)O2)C1=O` (centres unmarked) [Compound 70], for which the IC50 is 0.45 µg/mL (≈ 0.858 µM).

With `CC12OC(CC1(O)CN)n1c3ccccc3c3c4c(c5c6ccccc6n2c5c31)C(=O)N(N)C4=O` (centres unmarked) [Compound 71], the IC50 stood at 1 µg/mL (≈ 2.14 µM).

On to `CC12OC(CC1(O)C(=O)NO)n1c3ccccc3c3c4c(c5c6ccccc6n2c5c31)C(=O)NC4=O` (centres unmarked) [Compound 76], for which the IC50 was found to be 0.62 µg/mL (≈ 1.29 µM).

The subject of the next assay is COLO320DM cells. Nature of the assay: COLO320DM cell growth inhibition test. Type of assay: cell-based. The conditions noted are these: Homo sapiens, COLO 320DM; COLO320DM cells, cells counted with a microcell counter; read-out: cell growth inhibitory activity IC50, COLO320DM. As for the experimental part:
as §2, with “After” for “MCF 7 cells (4.5×10^4 cells/ml) prepared in RPMI 1640 medium containing 10% fetal calf serum, 10 μg/ml insulin and 10^-8 M estradiol are put into wells of a 96-well microtiter plate in the amount of 0.1 ml per each well. After”, “reader.” for “reader. By comparing the absorption of intact cells with those of the cells treated with a test compound in known concentrations, the concentration of the test compound at which growth of the cells is inhibited 50% is calculated as IC50.”
(4) COLO320DM cell growth inhibition test:
Thereafter, the test is carried out in the same manner as in (1) except that the cells are counted with a microcell counter.
As for `Cc1ccc2c(c1)c1c3c(c4c5ccccc5n5c4c1n2[C@H]1C[C@](O)(CO)[C@]5(C)O1)CNC3=O` (relative stereo) [Compound 26], the IC50 turned out to be 0.03 µg/mL (≈ 0.0662 µM).

On to `COC(=O)CNC[C@@]1(O)C[C@H]2O[C@]1(C)n1c3ccccc3c3c4c(c5c6ccccc6n2c5c31)C(=O)NC4` (relative stereo) [Compound 31], for which the IC50 turned out to be 0.31 µg/mL (≈ 0.607 µM).

On to `CN(C)C=NC[C@@]1(O)C[C@H]2O[C@]1(C)n1c3ccccc3c3c4c(c5c6ccccc6n2c5c31)C(=O)NC4` (relative stereo) [Compound 33], for which the IC50 was determined as 1 µg/mL (≈ 2.03 µM).

On to `C[C@]12O[C@H](C[C@]1(O)COC1CCCCO1)n1c3ccccc3c3c4c(c5c6ccccc6n2c5c31)CNC4=O` (some centres unmarked) [Compound 28], for which the IC50 worked out at 0.32 µg/mL (≈ 0.611 µM).

With `CC12OC(CC1(O)CNC(=O)CN)n1c3ccccc3c3c4c(c5c6ccccc6n2c5c31)CNC4=O` (centres unmarked) [Compound 34], the IC50 stood at 0.17 µg/mL (≈ 0.343 µM).

On to `CC12OC(CC1(O)CNC(=O)C1CCCN1)n1c3ccccc3c3c4c(c5c6ccccc6n2c5c31)CNC4=O` (centres unmarked) [Compound 35], for which the IC50 worked out at 0.26 µg/mL (≈ 0.485 µM).

Regarding `CC12OC(CC1(O)CN1CCSCC1)n1c3ccccc3c3c4c(c5c6ccccc6n2c5c31)CNC4=O` (centres unmarked) [Compound 39], the IC50 was determined as 0.38 µg/mL (≈ 0.724 µM).

Take `CC12OC(CC1(O)CN1CCNCC1)n1c3ccccc3c3c4c(c5c6ccccc6n2c5c31)CNC4=O` (centres unmarked) [Compound 40]: the IC50 was greater than 1 µg/mL.

For the compound `CC12OC(CC1(O)CN1CCCCC1)n1c3ccccc3c3c4c(c5c6ccccc6n2c5c31)CNC4=O` (centres unmarked) [Compound 41], the IC50 is 0.07 µg/mL (≈ 0.138 µM).

`COC(=O)C1(O)CC2OC1(C)n1c3ccccc3c3c4c(c5c6ccccc6n2c5c31)C(=O)N(CCN(C)C)C4=O` (centres unmarked) [Compound 69]: the IC50 came to 0.68 µg/mL (≈ 1.23 µM).

Turning to `CN(C)CCN1C(=O)c2c(c3c4ccccc4n4c3c3c2c2ccccc2n3C2CC(O)(CO)C4(C)O2)C1=O` (centres unmarked) [Compound 70], the half-inhibitory concentration (IC50) is 0.41 µg/mL (≈ 0.782 µM).

Consider `CC12OC(CC1(O)CN)n1c3ccccc3c3c4c(c5c6ccccc6n2c5c31)C(=O)N(N)C4=O` (centres unmarked) [Compound 71], for which the IC50 was greater than 1 µg/mL.

`CN1CC2(CC3OC2(C)n2c4ccccc4c4c5c(c6c7ccccc7n3c6c42)C(=O)NC5=O)OC1=O` (centres unmarked) [Compound 75]: the IC50 was 0.18 µg/mL (≈ 0.365 µM).

As for `CC12OC(CC1(O)C(=O)NO)n1c3ccccc3c3c4c(c5c6ccccc6n2c5c31)C(=O)NC4=O` (centres unmarked) [Compound 76], the IC50 came out at 0.06 µg/mL (≈ 0.124 µM).

By IC50 is commonly meant the midpoint of a concentration-inhibition curve.

These data come from patent US4923986A, “Derivatives of physiologically active substance K-252” (Kyowa Hakko Kogyo Co., Ltd., priority 1988, dated 1990).
